The subject of data set [1] is A-549 (human lung carcinoma) cells. Kind of data set: Cytotoxicity by microscopic morphological changes in uninfected toxicity control wells.
The next data set relates to Rhinovirus Type 2. The data set is described as follows: Rhinovirus yield reduction assay. The note with it: for ED50 (virus yield): second experiment.
For data set [2], the system named is Rhinovirus (RV) type 2, strain GPH. The data set is described as follows: Cytopathogenic effect (CPE) inhibition assay. The note with it: for EC50: A549 cells. A general note: Cytopathic effects are the visible damage that an infection or toxin causes in cultured cells.
Method: Cells: A-549 (human lung carcinoma) cells were obtained from the American Type Culture Collection (ATCC, Rockville, Md.). They were grown in Dulbecco's Minimum Essential Medium (DMEM, Gibco, Gaithersburg, Md.) supplemented with 10% fetal bovine serum (FBS, HyClone Laboratories, Logan, Utah). When the cells were infected with virus, the test medium contained 2% FBS with 0.1% NaHCO3 and 50 μg gentamicin/ml.
Virus: Rhinovirus (RV) type 2, strain GPH was obtained from the ATCC. The virus was passed in cells and a pool prepared, ampuled, and frozen at −80° C. An aliquot of the frozen virus was titrated in A-549 cells prior to use in the following experiments.
A portion of the original solution was then diluted 1:3.95 in DMEM to provide a final concentration of 632 μM.
In both treatment methods, cells were plated in 96-well flat-bottomed tissue culture microplates (Corning Glass Works, Corning, N.Y.) at 5×10^4 cells/well in DMEM growth medium, and incubated overnight at 37° C. to establish cell monolayers in each well. […] Approximately 5-10 minutes later, four wells at each drug concentration were exposed to 0.1 ml of test medium with virus, with two additional wells exposed to 0.1 ml of sterile medium only, the latter to serve as toxicity controls. A group of 6 infected wells received no test compound to serve as virus controls, and 6 additional wells received sterile medium only as normal cell controls.
In the first treatment method, the test compound was added to the cells immediately prior to virus exposure and remained on the cells until viral cytopathogenic effect (CPE) was determined. In the second treatment method, fresh test compound (diluted in medium) was added to the cells daily, after removing the previous medium, until such time as the CPE was measured.
The CPE from each well was scored from 0 (normal cells) to 4 (maximal, 100%, CPE). Morphological changes due to cytotoxicity were determined microscopically; this was graded as T (100% toxicity characterized by complete cell sloughing from plate), PVH (80% cytotoxicity), PH (60% cytotoxicity), P (40% cytotoxicity), PSI (20% cytotoxicity) and 0 (normal cells). Fifty percent effective (virus-inhibitory) doses (ED50) and 50% cytotoxic doses (CD50) were calculated by regression analysis for the CPE inhibition experiment.
Setting [3] is: drug present without medium change.

Like-named read-outs stand apart in the source and are kept apart here.

Method for Rhinovirus Type 2: After the second experiment, the microplate was frozen at −70° C., then thawed and the medium removed from the virus-infected wells and individually assayed for virus titer by adding 0.2 ml of serial 10-fold dilutions to a fresh monolayer of cells. The viral CPE, read 6 days later, was used as an infectivity endpoint.

As to “2′,3′-cyclophosphateadenylyl(2′,5′)adenylyl-(2′,5′)adenosine [Papirine AIII]”, the cytotoxicity observed entry in data set [1] (both experiments, A549 cells) was “no cytotoxicity was observed”. The “conclusion on inhibition of type 2 rhinovirus” value with Rhinovirus Type 2 (overall conclusion from CPE and virus yield results) is “significant inhibitor of type 2 rhinovirus”. Further, the “ED90 concentration (virus yield)” value in the data set on Rhinovirus Type 2 (same whether compound left on the cells or freshly added daily) was 8 µM. Moreover, the “ED50 (virus yield)” value in the data set on Rhinovirus Type 2 (drug changed every 24 hours) and with Rhinovirus Type 2 (setting [3]) was 8 µM throughout. Further, the “inhibition of viral CPE” value in data set [2] (both methods, both experiments, compared with ribavirin) is “significant inhibition of viral CPE was seen that exceeded the activity of the known positive inhibitor, ribavirin”. In addition, the EC50 in data set [2] (read-out: ED50, Expt. 1, 5 days' incubation at 37° C., drug changed every 24 hours) came to 24 µM; in data set [2] (read-out: ED50, Expt. 1, 5 days' incubation at 37° C., drug present without medium change), 25 µM; in data set [2] (read-out: ED50, Expt. 2, 3 days' incubation at 37° C., drug changed every 24 hours), 63 µM; in data set [2] (read-out: ED50, Expt. 2, 3 days' incubation at 37° C., drug present without medium change) it was 63 µM.

Consider `NC(=O)c1ncn([C@@H]2O[C@H](CO)[C@@H](O)[C@H]2O)n1` [Ribavirin], for which the CD50 came to 2290 µM in data set [1] (Expt. 1, 5 days' incubation at 37° C., drug changed every 24 hours, A549 cells); 2290 µM in data set [1] (Expt. 1, 5 days' incubation at 37° C., drug present without medium change, A549 cells); 740 µM in data set [1] (Expt. 2, 3 days' incubation at 37° C., drug changed every 24 hours, A549 cells); 740 µM in data set [1] (Expt. 2, 3 days' incubation at 37° C., drug present without medium change, A549 cells); 740 µM in data set [1] (Table 2, second experiment, drug changed every 24 hours); 740 µM in data set [1] (Table 2, second experiment, drug present without medium change). The “ED50 (virus yield)” value with Rhinovirus Type 2 (drug changed every 24 hours) worked out at 102 µM; in the data set with Rhinovirus Type 2 (setting [3]), 53 µM. The EC50 is 410 µM in data set [2] (Enterovirus, A549, 72 h, read-out: ED50, Expt. 2, 3 days' incubation at 37° C., drug present without medium change); 610 µM in data set [2] (Enterovirus, A549, 120 h, read-out: ED50, Expt. 1, 5 days' incubation at 37° C., drug present without medium change); 1190 µM in data set [2] (Enterovirus, A549, read-out: ED50, Expt. 1, 5 days' incubation at 37° C., drug changed every 24 hours); 186 µM in data set [2] (Enterovirus, A549, read-out: ED50, Expt. 2, 3 days' incubation at 37° C., drug changed every 24 hours).

Values taken from patent publication US6468991B1, “Method of treating rhinoviral infections” (Cyclis Pharmaceuticals, Inc., priority 1997, dated 2002).
